Measurements taken from patent US20260130933A1, “PHARMACEUTICAL COMPOSITION FOR PREVENTION OR TREATMENT OF NEPHROPATHY AND/OR DIABETES MELLITUS, COMPRISING ENAVOGLIFLOZIN” (DAEWOONG PHARMACEUTICAL CO., LTD., priority 2022, published 2026).

Test: Example 2: phase 3 trial, enavogliflozin 0.3 mg vs dapagliflozin 10 mg once a day for 24 weeks added to metformin in patients with type 2 diabetes (same efficacy, exploratory and safety endpoints)
Type: in vivo, human
Details: for Adiponectin, Mean (SD) / Adiponectin, Median / HOMA-IR, Mean (SD) / HOMA-IR, Median / HOMA-β, Mean (SD) / HOMA-β, Median / Leptin, Mean (SD) / Leptin, Median / UACR, Mean (SD) / UACR, Median / UGCR, Mean (SD) / UGCR, Median / Adiponectin change from baseline, ANCOVA LS mean (SE) / Adiponectin change from baseline, Mean (SD) / Adiponectin change from baseline, Median / HOMA-IR change from baseline, ANCOVA LS mean (SE) / HOMA-IR change from baseline, Mean (SD) / HOMA-IR change from baseline, Median / HOMA-β change from baseline, ANCOVA LS mean (SE) / HOMA-β change from baseline, Mean (SD) / HOMA-β change from baseline, Median / Leptin change from baseline, ANCOVA LS mean (SE) / Leptin change from baseline, Mean (SD) / Leptin change from baseline, Median / UACR change from baseline, ANCOVA LS mean (SE) / UACR change from baseline, Mean (SD) / UACR change from baseline, Median / UGCR change from baseline, ANCOVA LS mean (SE) / UGCR change from baseline, Mean (SD) / UGCR change from baseline, Median / HOMA-IR change from baseline, LS mean difference / HOMA-β change from baseline, LS mean difference / UACR change from baseline, LS mean difference / UGCR change from baseline, LS mean difference / leptin change from baseline, LS mean difference: PPS; for Non-inferiority (UCI < 0.35%): HbA1c change at week 24, vs dapagliflozin
Procedure: Subjects who met the inclusion/exclusion criteria were administered a placebo of the clinical trial drug under single-blind (subject blinding) conditions during a 2-week run-in period while continuing to receive metformin. […] The randomized subjects were administered two tablets of the clinical trial drug for each administration group once a day, and then visited the institution at weeks 6, 12, 18, and 24 during the 24-week administration period to conduct efficacy and safety evaluations.
• 1. Change in HbA1c at week 24 after administration of clinical trial drug compared to Visit 2 (randomization)
• 1. Change in HbA1c at each time point of weeks 6, 12, and 18 after administration of clinical trial drug compared to Visit 2 (randomization) • 2. Change in FPG at each time point of weeks 6, 12, 18, and 24 after administration of clinical trial drug compared to Visit 2 (randomization) • 3. Proportion of subjects achieving HbA1c<7% at each time point of weeks 6, 12, 18, and 24 after administration of clinical trial drug • 4. Proportion of subjects achieving HbA1c<6.5% at each time point of weeks 6, 12, 18, and 24 after administration of clinical trial drug • 5. Proportion of subjects achieving therapeutic response (HbA1c change (HbA1c at Visit 2-HbA1c at each evaluation time point)>0.5% or HbA1c<7% at each evaluation time point compared to Visit 2 (randomization)) at each time point of weeks 6, 12, 18 and 24 after administration of clinical trial drug
• 1. Change in fasting c-peptide at each time point of weeks 6, 12, 18, and 24 after administration of clinical trial drug compared to Visit 2 (randomization) • 2. Change in body weight at each time point of weeks 6, 12, 18, and 24 after administration of clinical trial drug compared to Visit 2 (randomization) • 3. Change in fasting lipid concentration (total cholesterol, LDL-C, HDL-C, and triglycerides) at each time point of weeks 6, 12, 18, and 24 after administration of clinical trial drug compared to Visit 2 (randomization) • 4. Changes in systolic or diastolic blood pressure at each time point of weeks 6, 12, 18, and 24 after administration of clinical trial drug compared to Visit 2 (randomization) • 5. Changes in β-cell function and insulin resistance measured by HOMA-β and HOMA-IR at each time point of weeks 6, 12, 18, and 24 after administration of clinical trial drug compared to Visit 2 (randomization) • 6. Changes in renal function-related indicators (UACR, UGCR) measured by UACR at each time point of weeks 6, 12, 18, and 24 after administration of clinical trial drug compared to Visit 2 (randomization) • 7. Changes in obesity-related indicators (adiponectin, leptin) at each time point of weeks 6, 12, 18, and 24 after administration of clinical trial drug compared to Visit 2 (randomization)

[1] = Baseline, modified per-protocol set 1, enavogliflozin 0.3 mg, dapagliflozin 10 mg
[2] = Baseline, per-protocol set, enavogliflozin 0.3 mg, dapagliflozin 10 mg
[3] = Week 6, enavogliflozin minus dapagliflozin
[4] = Week 6, mPPS1, enavogliflozin minus dapagliflozin
[5] = Week 6, mPPS2, enavogliflozin minus dapagliflozin
[6] = Week 12, enavogliflozin minus dapagliflozin

## OC[C@H]1O[C@@H](c2cc(Cc3ccc(C4CC4)cc3)c(Cl)c3c2CCO3)[C@H](O)[C@@H](O)[C@@H]1O [Enavogliflozin, (2S,3R,4R,5S,6R)-2-(7-chloro-6 (4-cyclopropylbenzyl)-2,3-dihydrobenzofuran-4-yl)-6-(hydroxymethyl)tetrahydro-2H-pyran-3,4,5-triol]
24 weeks
  Incidence of serious adverse drug reactions: 1 case
24 weeks, vs dapagliflozin
  Incidence of adverse events or serious adverse events between the test group and the control: no statistically significant differences
Baseline
  Adiponectin, Mean (SD): 6.96 µg/mL
  Adiponectin, Median: 5.99 µg/mL
  HOMA-IR, Mean (SD): 3.45
  HOMA-IR, Median: 2.67
  HOMA-β, Mean (SD): 45.53
  HOMA-β, Median: 35.00
  Leptin, Mean (SD): 12.21 ng/mL
  Leptin, Median: 8.00 ng/mL
  UACR, Mean (SD): 38190 mg/kg
  UACR, Median: 10.10 g/kg
  UGCR, Mean (SD): 1.54 mg/mg
  UGCR, Median: 0.14 mg/mg
Baseline, mPPS1
  HDL-C, Mean (SD): 50.94(10.85) mg/dL
  HDL-C, Median: 50.00 mg/dL
  LDL-C, Mean (SD): 86.52(30.53) mg/dL
  LDL-C, Median: 83.00 mg/dL
  Triglycerides, Mean (SD): 122.10(85.91) mg/dL
  Triglycerides, Median: 101.00 mg/dL
Baseline, mPPS2
  Diastolic blood pressure, Mean (SD): 77.04 mmHg
  Diastolic blood pressure, Median: 77.00 mmHg
  Systolic blood pressure, Mean (SD): 129.72(13.64) mmHg
  Systolic blood pressure, Median: 130.00 mmHg
[1]
  fasting Total cholesterol, Mean (SD): 151.43(32.91) mg/dL
  fasting Total cholesterol, Median: 150.00 mg/dL
[2]
  FPG, Mean (SD): 145.35 mg/dL
  FPG, Median: 147.00 mg/dL
  HbA1c, Mean (SD): 7.75%
  HbA1c, Median: 7.49%
  body weight, Mean (SD): 70.17(11.06) kg
  body weight, Median: 67.40 kg
  fasting c-peptide, Mean (SD): 0.72(0.29) ng/mL
  fasting c-peptide, Median: 0.66 ng/mL
  Non-inferiority (UCI < 0.35%): Yes
Listed as enavogliflozin
  Non-inferiority (UCI < 0.35%): not inferior
Week 6
  Adiponectin change from baseline, ANCOVA LS mean (SE): 0.92 µg/mL
  Adiponectin change from baseline, Mean (SD): 0.84 µg/mL
  Adiponectin change from baseline, Median: 0.58 µg/mL
  Adiponectin, Mean (SD): 7.8 µg/mL
  Adiponectin, Median: 6.87 µg/mL
  HOMA-IR change from baseline, ANCOVA LS mean (SE): −1.47
  HOMA-IR change from baseline, Mean (SD): −1.35
  HOMA-IR change from baseline, Median: −0.91
  HOMA-IR, Mean (SD): 2.10
  HOMA-IR, Median: 1.72
  HOMA-β change from baseline, ANCOVA LS mean (SE): 7.22
  HOMA-β change from baseline, Mean (SD): 5.87
  HOMA-β change from baseline, Median: 8.10
  HOMA-β, Mean (SD): 51.39
  HOMA-β, Median: 43.00
  Leptin change from baseline, ANCOVA LS mean (SE): -2.43 ng/mL
  Leptin change from baseline, Mean (SD): -2.54 ng/mL
  Leptin change from baseline, Median: -1.36 ng/mL
  Leptin, Mean (SD): 9.66 ng/mL
  Leptin, Median: 5.99 ng/mL
  UACR change from baseline, ANCOVA LS mean (SE): -12.75 g/kg
  UACR change from baseline, Mean (SD): -11440 mg/kg
  UACR change from baseline, Median: 0.00 g/kg
  UACR, Mean (SD): 26760 mg/kg
  UACR, Median: 11.40 g/kg
  UGCR change from baseline, ANCOVA LS mean (SE): 65.72 mg/mg
  UGCR change from baseline, Mean (SD): 63.13 mg/mg
  UGCR change from baseline, Median: 57.91 mg/mg
  UGCR, Mean (SD): 64.66 mg/mg
  UGCR, Median: 58.45 mg/mg
[3]
  HOMA-IR change from baseline, LS mean difference: −0.16
  HOMA-β change from baseline, LS mean difference: 9.01
  UACR change from baseline, LS mean difference: -20.88 g/kg
  UGCR change from baseline, LS mean difference: 15.62 mg/mg
  leptin change from baseline, LS mean difference: -0.81 ng/mL
Week 6, mPPS1
  HDL-C change from baseline, ANCOVA LS mean (SE): 1.11(0.58) mg/dL
  HDL-C change from baseline, Mean (SD): 1.18(5.14) mg/dL
  HDL-C change from baseline, Median: 1.00 mg/dL
  HDL-C, Mean (SD): 52.12(11.10) mg/dL
  HDL-C, Median: 51.00 mg/dL
  LDL-C change from baseline, ANCOVA LS mean (SE): −0.09(1.89) mg/dL
  LDL-C change from baseline, Mean (SD): −0.67(15.12) mg/dL
  LDL-C change from baseline, Median: -2.00 mg/dL
  LDL-C, Mean (SD): 85.85(31.51) mg/dL
  LDL-C, Median: 79.00 mg/dL
  Triglycerides change from baseline, ANCOVA LS mean (SE): 8.62(6.88) mg/dL
  Triglycerides change from baseline, Mean (SD): 9.49(73.63) mg/dL
  Triglycerides change from baseline, Median: -3.00 mg/dL
  Triglycerides, Mean (SD): 131.59(114.93) mg/dL
  Triglycerides, Median: 97.00 mg/dL
[4]
  HDL-C change from baseline, LS mean difference: -0.49 mg/dL
  LDL-C change from baseline, LS mean difference: -4.29 mg/dL
  triglycerides change from baseline, LS mean difference: 18.76 mg/dL
Week 6, mPPS2
  Diastolic blood pressure change from baseline, ANCOVA LS mean (SE): −2.75 mmHg
  Diastolic blood pressure change from baseline, Mean (SD): −2.80 mmHg
  Diastolic blood pressure change from baseline, Median: −3.00 mmHg
  Diastolic blood pressure, Mean (SD): 74.25 mmHg
  Diastolic blood pressure, Median: 74.00 mmHg
  Systolic blood pressure change from baseline, ANCOVA LS mean (SE): −3.29(1.02) mmHg
  Systolic blood pressure change from baseline, Mean (SD): −3.28(9.34) mmHg
  Systolic blood pressure change from baseline, Median: −4.00 mmHg
  Systolic blood pressure, Mean (SD): 126.44(14.45) mmHg
  Systolic blood pressure, Median: 128.00 mmHg
[5]
  diastolic blood pressure change from baseline, LS mean difference: −1.28 mmHg
  systolic blood pressure change from baseline, LS mean difference: −0.58 mmHg
Week 12
  Adiponectin change from baseline, ANCOVA LS mean (SE): 0.84 µg/mL
  Adiponectin change from baseline, Mean (SD): 0.9 µg/mL
  Adiponectin change from baseline, Median: 0.68 µg/mL
  Adiponectin, Mean (SD): 7.87 µg/mL
  Adiponectin, Median: 6.91 µg/mL
  HOMA-IR change from baseline, ANCOVA LS mean (SE): −1.58
  HOMA-IR change from baseline, Mean (SD): −1.36
  HOMA-IR change from baseline, Median: −0.99
  HOMA-IR, Mean (SD): 2.10
  HOMA-IR, Median: 1.61
  HOMA-β change from baseline, ANCOVA LS mean (SE): 5.57
  HOMA-β change from baseline, Mean (SD): 5.59
  HOMA-β change from baseline, Median: 5.10
  HOMA-β, Mean (SD): 51.45
  HOMA-β, Median: 41.60
  Leptin change from baseline, ANCOVA LS mean (SE): -2.64 ng/mL
  Leptin change from baseline, Mean (SD): -2.73 ng/mL
  Leptin change from baseline, Median: -1.45 ng/mL
  Leptin, Mean (SD): 9.56 ng/mL
  Leptin, Median: 6.60 ng/mL
  UACR change from baseline, ANCOVA LS mean (SE): -21.65 g/kg
  UACR change from baseline, Mean (SD): -18550 mg/kg
  UACR change from baseline, Median: -1.40 g/kg
  UACR, Mean (SD): 19800 mg/kg
  UACR, Median: 11.05 g/kg
  UGCR change from baseline, ANCOVA LS mean (SE): 64.70 mg/mg
  UGCR change from baseline, Mean (SD): 63.04 mg/mg
  UGCR change from baseline, Median: 58.91 mg/mg
  UGCR, Mean (SD): 64.53 mg/mg
  UGCR, Median: 62.30 mg/mg
[6]
  HOMA-IR change from baseline, LS mean difference: 0.02
  HOMA-β change from baseline, LS mean difference: −3.17
  UACR change from baseline, LS mean difference: -18.27 g/kg
  UGCR change from baseline, LS mean difference: 19.57 mg/mg
  leptin change from baseline, LS mean difference: 0.07 ng/mL
Week 12, mPPS1
  HDL-C change from baseline, ANCOVA LS mean (SE): 2.31(0.60) mg/dL
  HDL-C change from baseline, Mean (SD): 2.08(5.60) mg/dL
  HDL-C change from baseline, Median: 2.00 mg/dL
